Measured values taken from patent publication US20240327417A1, “HETEROCYCLIC COMPOUNDS” (BeiGene Switzerland GmbH, priority 2021, published 2024).

Experiments:
[1] = target: T1, Full length DGKα (D21-10BG, SignalChem) (Homo sapiens, UniProt P23743); assay: Biochemical DGK IC50 assay (ADP-Glo, lipid micelle substrate), DGKα; settings: 7.5 nM enzyme, 140 μM ATP, 80 μM DAG, 1 hour preincubation, 1 hour reaction, room temperature, read-out: IC50s for DGKα
T1 construct: Full length DGKα (D21-10BG, SignalChem); purchased SignalChem D21-10BG
Description: (§1) Enzymatic reactions of DGKζ, DGKα and DGKδ were performed using ADP-Glo assay with lipid micelle substrate. […] Full length DGKα (D21-10BG, SignalChem) and full length DGKδ (D23-10G, SignalChem) were purchased. Lipid micelle was prepared by dissolving DAG (Sigma, 317505-10MG) and PS (Sigma, P7769-100MG) with chloroform which was firtherly removed by rotary evaporation. The obtained residue was resuspended in buffer containing 25 mM HEPES pH 7.0, 0.5 mM EDTA and 160 mM Octyl β-D glucopyranoside by vigorous mixing and ultrasonic (IID, Scientz).
(§2) The inhibition activities testing for the compound disclosed herein were carried out at room temperature in assay buffer containing 50 mM HEPES, 10 mM MgCl2, 0.01% BSA, 0.1 mM Na3VO4, 0.005% Tween-20 and 0.01 mM CaCl2. Compounds in DMSO were dispensed into wells of a black 384 well plate (Corning 4514) using D300e digital dispenser (Tecan). The ranges of compounds final concentration were 1.55˜10000 nM or 23.3˜150000 nM. 3 μL 2× enzyme solution was added to wells. […] After 1 hour reaction, 5 μL ADP-Glo reagent (Promga V9101) was added and incubated for 40 minutes. 10 μL Kinase Detection reagent was added and incubated for 30 minutes. Luminescence was measured on a microplate reader (PHERAstar FSX, BMG labtech). The IC50s are calculated based on inhibition of enzyme activity in the presence of increasing concentrations of compounds.

[2] = target: T2, Full length DGKζ (in-house protein M1-V929) (Homo sapiens, UniProt Q13574); assay: Biochemical DGK IC50 assay (ADP-Glo, lipid micelle substrate), DGKζ; settings: 0.5 nM enzyme, 140 μM ATP, 80 μM DAG, 1 hour preincubation, 1 hour reaction, room temperature, read-out: IC50s for DGKζ
T2 construct: His (N); TEV cleavage site (N); made in house; host or cells: Sf9 insect cells (baculovirus, Bac-to-Bac)
Description: as §1, §2
Human His-TEV-DGK-zeta-pFastBac1 and human baculovirus samples was generated using the Bac-to-Bac baculovirus expression system (Invitrogen) according to the manufacturer's protocol. The DNA used for expression of DGK-zeta, have SEQ ID Nos: 1. Baculovirus amplification was achieved using infected SF9 cells at 1:2000 virus/cells ratios, and grown for 96 hours at 27° C. post-transfected.
The expression scaled up for each protein was carried out in the […] from CORNING. 4 L of 3×10^6 cells/mL Sf9 cells (Expression System, Invitrogen) grown in SF900™ II SFM insect medium (Expression System) was infected with virus stock at 1:200 virus/cells ratio, and grown for 48 hours at 27° C. post-transfection. The infected cell culture was harvested by centrifugation at 6000 rpm for 15 min 4° C. in a SORVALL LYNX6000 centrifuge. The cell pellets were stored at −80° C.
Full length human DGKζ produced as described above, was purified from Sf9 baculovirus-infected insect cell paste. The cells were lysed using sonication method, and the lysates were clarified by centrifugation.

T2 sequence (Q13574 1-929 isoform Q13574-4): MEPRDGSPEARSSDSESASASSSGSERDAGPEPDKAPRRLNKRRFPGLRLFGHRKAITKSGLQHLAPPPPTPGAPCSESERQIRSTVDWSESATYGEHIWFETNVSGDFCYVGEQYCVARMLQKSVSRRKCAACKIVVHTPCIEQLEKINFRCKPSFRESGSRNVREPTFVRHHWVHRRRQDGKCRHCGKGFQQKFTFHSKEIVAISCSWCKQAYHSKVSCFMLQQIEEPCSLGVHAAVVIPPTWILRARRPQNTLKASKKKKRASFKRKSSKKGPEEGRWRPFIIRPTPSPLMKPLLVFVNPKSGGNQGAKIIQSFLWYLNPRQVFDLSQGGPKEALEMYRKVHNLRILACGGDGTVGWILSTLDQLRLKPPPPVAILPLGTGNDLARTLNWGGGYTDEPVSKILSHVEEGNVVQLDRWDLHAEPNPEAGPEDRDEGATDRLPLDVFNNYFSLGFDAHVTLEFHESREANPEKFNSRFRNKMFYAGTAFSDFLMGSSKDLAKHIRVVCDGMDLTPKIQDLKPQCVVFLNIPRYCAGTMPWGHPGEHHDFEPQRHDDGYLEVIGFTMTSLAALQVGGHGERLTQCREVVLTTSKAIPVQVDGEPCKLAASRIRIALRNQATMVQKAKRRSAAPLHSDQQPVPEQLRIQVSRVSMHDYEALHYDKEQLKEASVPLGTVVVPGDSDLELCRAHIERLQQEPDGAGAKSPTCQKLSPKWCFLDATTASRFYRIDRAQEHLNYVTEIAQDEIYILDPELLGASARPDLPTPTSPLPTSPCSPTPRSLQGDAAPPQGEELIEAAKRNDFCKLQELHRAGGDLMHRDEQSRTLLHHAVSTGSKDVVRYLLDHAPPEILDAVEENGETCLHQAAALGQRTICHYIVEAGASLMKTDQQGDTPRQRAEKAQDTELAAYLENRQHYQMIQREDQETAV
T1 sequence (P23743 whole entry): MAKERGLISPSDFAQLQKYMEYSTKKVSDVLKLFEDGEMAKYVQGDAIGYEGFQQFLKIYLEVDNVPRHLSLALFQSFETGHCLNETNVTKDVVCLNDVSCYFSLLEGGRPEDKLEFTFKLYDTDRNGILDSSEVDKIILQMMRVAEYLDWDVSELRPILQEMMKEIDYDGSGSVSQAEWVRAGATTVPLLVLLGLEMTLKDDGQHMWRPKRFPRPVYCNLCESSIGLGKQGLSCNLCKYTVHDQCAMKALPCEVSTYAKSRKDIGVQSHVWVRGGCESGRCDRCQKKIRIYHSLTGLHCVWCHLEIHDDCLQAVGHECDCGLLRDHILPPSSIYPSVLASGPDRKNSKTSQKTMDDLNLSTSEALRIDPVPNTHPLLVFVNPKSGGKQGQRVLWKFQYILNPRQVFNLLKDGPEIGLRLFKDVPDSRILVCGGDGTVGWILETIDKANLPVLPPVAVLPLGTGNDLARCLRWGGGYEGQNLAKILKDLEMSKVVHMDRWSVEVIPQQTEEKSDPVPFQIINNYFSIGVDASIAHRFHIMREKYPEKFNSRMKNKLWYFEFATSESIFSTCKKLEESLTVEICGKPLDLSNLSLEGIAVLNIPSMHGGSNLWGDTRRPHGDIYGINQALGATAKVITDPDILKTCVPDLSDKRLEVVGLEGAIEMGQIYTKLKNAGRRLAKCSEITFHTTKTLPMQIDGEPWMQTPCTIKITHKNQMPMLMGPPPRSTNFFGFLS

| SMILES | IC50 [1] | IC50 [2] |
| --- | --- | --- |
| CC[C@H]1CN(C(C)c2ccc(F)cc2OC)[C@H](CC)CN1c1cc(=O)n(C)n2cc(CC#N)nc12 (stereo partly drawn) [Compound A32, 2-(8-((2S,5R)-2,5-diethyl-4-(1-(4-fluoro-2-methoxyphenyl)ethyl)piperazin-1-yl)-5-methyl-6-oxo-5,6-dihydroimidazo[1,2-b]pyridazin-2-yl)acetonitrile] | 6.42 µM | 0.11 µM |
| [2H]C([2H])([2H])C(c1ccc2nc(C)sc2c1)N1C[C@H](CC)N(c2cc(=O)n(C([2H])([2H])[2H])n3cc(CC#N)nc23)C[C@H]1CC (single isomer, unassigned) [Compound A95b] | 1.53 µM | 1.02 µM |
| CC[C@H]1CN(C(C)c2ccc(C3CC3)nc2)[C@H](CC)CN1c1cc(=O)n(C)n2cc(CC#N)nc12 (single isomer, unassigned) [Compound A37b] | 0.26 µM | 0.538 µM |
| CC[C@H]1CN(C(CCOC)c2ccc3nc(C)sc3c2)[C@H](C)CN1c1cc(=O)n(C)n2cc(CC#N)nc12 (stereo partly drawn) [Compound A103, 2-(8-((2S,5R)-2-ethyl-4-(3-methoxy-1-(2-methylbenzo[d]thiazol-6-yl)propyl)-5-methylpiperazin-1-yl)-5-methyl-6-oxo-5,6-dihydroimidazo[1,2-b]pyridazin-2-yl)acetonitrile] | 0.701 µM | 0.138 µM |
| CC#CCc1cn2c(n1)c(N1C[C@@H](CC)N(C(C)c3ccc4nc(C)sc4c3)C[C@@H]1CC)cc(=O)n2C (single isomer, unassigned) [Compound A68b] | 0.527 µM | > 10 µM |
| CC[C@H]1CN(C(C)c2ccc(C(F)(F)F)cc2F)[C@H](CC)CN1c1cc(=O)n(C)n2cc(CC#N)nc12 (single isomer, unassigned) [Compound A92b] | 0.803 µM | 1.61 µM |
| CC(c1ccc2c(c1)OC(C)(C)CO2)N1C[C@H](C)N(c2c(F)c(=O)n(C)n3cc(CC#N)nc23)C[C@H]1C (single isomer, unassigned) [Compound A26a] | 2.89 µM | 0.019 µM |
| CC[C@H]1CN(C(C)c2ccc(C(F)(F)F)cc2)[C@H](CC)CN1c1cc(=O)n(C)n2cc(CC#N)nc12 (single isomer, unassigned) [Compound A91b] | 0.319 µM | 1.43 µM |
| CC#CCc1cn2c(n1)c(N1C[C@@H](CC)N(C(C)c3ccc4nc(C)sc4c3F)C[C@@H]1CC)cc(=O)n2C (single isomer, unassigned) [Compound A116b] | 0.708 µM | > 10 µM |
| CC[C@@H]1CN(c2cc(=O)n(C)n3cc(COC)nc23)[C@@H](C)CN1C(C)c1ccc(C(F)(F)F)cc1F (single isomer, unassigned) [Compound A16b] | 8.46 µM | > 10 µM |
| CC#CCc1cn2c(n1)c(N1C[C@@H](CC)N(C(C)c3ccc4nc(C)sc4c3)C[C@@H]1CC)cc(=O)n2C (single isomer, unassigned) [Compound A68a] | 0.026 µM | 0.104 µM |
| CC[C@@H]1CN(c2c(C#N)c(=O)n(C)n3cc(CC#N)nc23)[C@@H](C)CN1C(C)c1ccc(C2CC2)nc1 (single isomer, unassigned) [Compound A74b] | 1.43 µM | 1.55 µM |
| CCC(c1ccc(C(F)(F)F)cc1)N1C[C@H](CC)N(c2cc(=O)n(C)n3cc(CC#N)nc23)C[C@H]1CC (single isomer, unassigned) [Compound A77a] | 0.102 µM | 0.255 µM |
| CC[C@H]1CN(C(C)c2ccc(C3CC3)nc2)[C@H](CC)CN1c1c(F)c(=O)n(C)n2cc(CC#N)nc12 (single isomer, unassigned) [Compound A73b] | 0.832 µM | 0.302 µM |

Results, then the molecule that gave them:

| IC50 [1] | IC50 [2] | SMILES |
| --- | --- | --- |
| 1.06 µM | 0.911 µM | CCc1nc2ccc(C(C)N3C[C@H](CC)N(c4cc(=O)n(C)n5cc(CC#N)nc45)C[C@H]3CC)cc2s1 (single isomer, unassigned) [Compound A100b] |
| 0.826 µM | 0.189 µM | CC[C@@H]1CN(c2cc(=O)n(C)n3cc(CC#N)nc23)[C@@H](C)CN1C(C)c1cc2sc(C)nc2cc1F (single isomer, unassigned) [Compound A60a] |
| 0.297 µM | 0.019 µM | CCc1nc2ccc(C(C)N3C[C@H](CC)N(c4cc(=O)n(C)n5cc(CC#N)nc45)C[C@H]3CC)cc2s1 (single isomer, unassigned) [Compound A100a] |
| 0.172 µM | 0.357 µM | CC[C@H]1CN(C(C)c2ccc3ncsc3n2)[C@H](CC)CN1c1cc(=O)n(C)n2cc(CC#N)nc12 (single isomer, unassigned) [Compound A57b] |
| 0.535 µM | 2 µM | CC#CCc1cn2c(n1)c(N1C[C@@H](CC)N(C(C)c3ccc4ncsc4c3F)C[C@@H]1CC)cc(=O)n2C (single isomer, unassigned) [Compound A117b] |
| 0.018 µM | 0.075 µM | CC[C@H]1CN(C(C)c2ccc(C3CC3)cn2)[C@H](CC)CN1c1cc(=O)n(C)n2cc(CC#N)nc12 (stereo partly drawn) [Compound A52, 2-(8-((2S,5R)-4-(1-(5-cyclopropylpyridin-2-yl)ethyl)-2,5-diethylpiperazin-1-yl)-5-methyl-6-oxo-5,6-dihydroimidazo[1,2-b]pyridazin-2-yl)acetonitrile] |
| 0.823 µM | 4.72 µM | CC[C@@H]1CN(c2cc(=O)n(C)n3cc(CC#N)nc23)[C@@H](C)CN1C(C)c1ccc(C(F)(F)F)cc1F (single isomer, unassigned) [Compound A17b] |
| 0.851 µM | 0.029 µM | CCc1nc2ccc(C(C)N3C[C@H](C)N(c4cc(=O)n(C)n5cc(CC#N)nc45)C[C@H]3CC)cc2s1 (single isomer, unassigned) [Compound A101a] |
| 0.087 µM | 0.011 µM | CC[C@H]1CN(C(C)c2ccc3nc(C)sc3c2)[C@H](CC)CN1c1cc(=O)n(C)n2cc(CC#N)nc12 (single isomer, unassigned) [Compound A56a] |
| 0.022 µM | 0.048 µM | CC#CCc1cn2c(n1)c(N1C[C@@H](CC)N(C(C)c3ccc4ncsc4c3F)C[C@@H]1CC)cc(=O)n2C (single isomer, unassigned) [Compound A117a] |
| 4.18 µM | 3.61 µM | CC[C@@H]1CN(c2cc(=O)n(C)n3cc(CC#N)nc23)[C@@H](C)CN1C(C)c1ccc2nccnc2c1 (single isomer, unassigned) [Compound A13b] |
| 0.423 µM | 0.475 µM | CC[C@H]1CN(C(C)c2ccc(C(C)C)nc2)[C@H](CC)CN1c1cc(=O)n(C)n2cc(CC#N)nc12 (single isomer, unassigned) [Compound A38b] |
| 0.03 µM | 0.445 µM | CC[C@H]1CN(C(C)c2ccc(OC)cn2)[C@H](CC)CN1c1cc(=O)n(C)n2cc(CC#N)nc12 (stereo partly drawn) [Compound A48, 2-(8-((2S,5R)-2,5-diethyl-4-(1-(5-methoxypyridin-2-yl)ethyl)piperazin-1-yl)-5-methyl-6-oxo-5,6-dihydroimidazo[1,2-b]pyridazin-2-yl)acetonitrile] |
| 2.39 µM | 1.21 µM | CC[C@H]1CN(C(C)c2ccc3ncsc3c2F)[C@H](CC)CN1c1cc(=O)n(C)n2cc(CC#N)nc12 (single isomer, unassigned) [Compound A62b] |
| – | 1.26 µM | CC[C@H]1CN(C(C)c2ccc3ncsc3n2)[C@H](CC)CN1c1c(F)c(=O)n(C)n2cc(CC#N)nc12 (single isomer, unassigned) [Compound A81a] |
| – | 8.16 µM | CC[C@@H]1CN(c2cc(=O)n(C)n3cc(CC#N)nc23)[C@@H](C)CN1C(C)c1ccc2ncsc2n1 (single isomer, unassigned) [Compound A80b] |
| – | 0.032 µM | CC[C@H]1CN(C(C)c2ccc3ncsc3n2)[C@H](CC)CN1c1c(F)c(=O)n(C)n2cc(CC#N)nc12 (single isomer, unassigned) [Compound A81b] |
| – | 0.044 µM | CC[C@@H]1CN(c2cc(=O)n(C)n3cc(CC#N)nc23)[C@@H](C)CN1C(C)c1ccc2ncsc2n1 (single isomer, unassigned) [Compound A80a] |
